Results: US9204653B2, “5-fluoro pyrimidine derivatives” (DOW AGROSCIENCES LLC, priority 2008, dated 2015)
Read-outs that look alike come from different tables or passages of the source.

Tests used:
[1] = tested on: Mycosphaerella graminicola; Anamorph: Septoria tritici; Bayer Code SEPTTR; assay: Leaf blotch of wheat, foliar fungicide treatment, one day protectant (1DP) or three day curative (3DC); type: in vivo, Septoria tritici on wheat plants (variety Yuma); settings: Zymoseptoria tritici; for pest or weed control at 200 ppm / pest or weed control at 50 ppm: % disease control rating
[2] = tested on: Venturia inaequalis; Bayer Code VENTIN; assay: Apple scab; type: in vivo; settings: 24 h, % disease control rating, one day protectant; for pest or weed control at 25 ppm: read-out: VENTIN 1 DP 25 ppm; for pest or weed control at 75 ppm: read-out: VENTIN 1 DP 75 ppm
[3] = tested on: Cercospora beticola; Bayer Code CERCBE; assay: Leaf spot of sugar beets; type: in vivo, Cercospora beticola on sugar beets (variety HH-88); settings: 24 h, % disease control rating, one day protectant; for pest or weed control at 25 ppm: read-out: CERCBE 1 DP 25 ppm; for pest or weed control at 75 ppm: read-out: CERCBE 1 DP 75 ppm
[4] = 24 h, one day protectant (1DP), percent disease control rating, read-out: SETTTR 1DP 25 ppm
[5] = 24 h, one day protectant (1DP), percent disease control rating, read-out: SEPTTR 1DP 100 ppm
[6] = 72 h, three day curative (3DC), percent disease control rating, read-out: SEPTTR 3DC 25 ppm
[7] = 72 h, three day curative (3DC), percent disease control rating, read-out: SEPTTR 3DC 100 ppm
[8] = 24 h, one day protectant (1DP), rating of percent disease control, read-out: SETTTR 1DP 25 ppm
[9] = 24 h, one day protectant (1DP), rating of percent disease control, read-out: SEPTTR 1DP 100 ppm
[10] = 72 h, three day curative (3DC), rating of percent disease control, read-out: SEPTTR 3DC 25 ppm
[11] = 72 h, three day curative (3DC), rating of percent disease control, read-out: SEPTTR 3DC 100 ppm

| SMILES | pest or weed control at 25 ppm [1, 4] | pest or weed control at 100 ppm [1, 5] | pest or weed control at 25 ppm [1, 6] | pest or weed control at 100 ppm [1, 7] | pest or weed control at 25 ppm [2] | pest or weed control at 75 ppm [2] | pest or weed control at 25 ppm [3] | pest or weed control at 75 ppm [3] | pest or weed control at 25 ppm [1, 8] | pest or weed control at 100 ppm [1, 9] | pest or weed control at 25 ppm [1, 10] | pest or weed control at 100 ppm [1, 11] | pest or weed control at 25 ppm ([1]; 24 h, one day protectant, rating of percent disease control, read-out: SETTTR 1DP 25 ppm) | pest or weed control at 100 ppm ([1]; 24 h, one day protectant, rating of percent disease control, read-out: SEPTTR 1DP 100 ppm) | pest or weed control at 25 ppm ([1]; 72 h, three day curative, rating of percent disease control, read-out: SEPTTR 3DC 25 ppm) | pest or weed control at 100 ppm ([1]; 72 h, three day curative, rating of percent disease control, read-out: SEPTTR 3DC 100 ppm) | pest or weed control at 200 ppm ([1]; 24 h, one day protectant) | pest or weed control at 50 ppm ([1]; 24 h, one day protectant) |
| --- | --- | --- | --- | --- | --- | --- | --- | --- | --- | --- | --- | --- | --- | --- | --- | --- | --- | --- |
| CC(Oc1ncc(F)c(NCOCc2ccccc2)n1)c1ccc(F)cc1 (centres unmarked) [Compound 121] | 51 to 75% | 76 to 100% | 51 to 75% | 76 to 100% | 76 to 100% | 26 to 50% | 0 to 25% | 0 to 25% |  |  |  |  |  |  |  |  |  |  |
| CCOCNc1nc(OCc2ccc(OC)c(F)c2)ncc1F [Compound 452] |  |  |  |  | 0 to 25% | 26 to 50% | 0 to 25% | 0 to 25% | 76 to 100% | 76 to 100% | 76 to 100% | 76 to 100% |  |  |  |  |  |  |
| Nc1nc(OCc2ccc(OCC(F)(F)F)nc2)ncc1F [Compound 79] | 76 to 100% | 76 to 100% | 76 to 100% | 76 to 100% | 26 to 50% | 26 to 50% | 0 to 25% | 26 to 50% |  |  |  |  |  |  |  |  |  |  |
| Nc1nc(OCc2cnc(Cl)c(Cl)c2)ncc1F [Compound 582] |  |  |  |  | 76 to 100% | 76 to 100% | 51 to 75% | 51 to 75% |  |  |  |  | 76 to 100% | 76 to 100% | 76 to 100% | 76 to 100% |  |  |
| Fc1cnc(OCc2ccc(OC(F)(F)F)cc2)nc1NCc1cccs1 [Compound 860] |  |  |  |  | 26 to 50% | 51 to 75% | 0 to 25% | 26 to 50% |  |  |  |  |  |  |  |  | 76 to 100% |  |
| Nc1nc(OCCN2CCCC2=O)ncc1F [Compound 270] |  |  |  |  | 0 to 25% | 26 to 50% | 26 to 50% | 26 to 50% | 0 to 25% | 0 to 25% | 0 to 25% | 0 to 25% |  |  |  |  |  |  |
| Fc1cnc(OC2CCCCC2)nc1N1CCOCC1 [Compound 941] |  |  |  |  | 51 to 75% | 26 to 50% | 0 to 25% | 0 to 25% |  |  |  |  |  |  |  |  | 0 to 25% | 0 to 25% |
| Cc1oc(-c2ccccc2)cc1COc1ncc(F)c(N)n1 [Compound 251] |  |  |  |  | 76 to 100% | 76 to 100% | 0 to 25% | 51 to 75% | 76 to 100% | 76 to 100% | 76 to 100% | 76 to 100% |  |  |  |  |  |  |
| CCNN(CC)c1nc(OCc2ccc(F)cc2)ncc1F [Compound 352] |  |  |  |  | 0 to 25% | 26 to 50% | 0 to 25% | 0 to 25% | 0 to 25% | 0 to 25% | 0 to 25% | 0 to 25% |  |  |  |  |  |  |
| CCOC(=O)C(=O)Nc1nc(OCc2ccc(F)cc2)ncc1F [Compound 11, N-[5-Fluoro-2-(4-fluorobenzyloxy)pyrimidin-4-yl]oxalamic acid ethyl ester] | 76 to 100% | 76 to 100% | 76 to 100% | 76 to 100% | 76 to 100% | 76 to 100% | 0 to 25% | 0 to 25% |  |  |  |  |  |  |  |  |  |  |
| Fc1cnc(OCc2cccs2)nc1N1CCOCC1 [Compound 845] |  |  |  |  | 26 to 50% | 26 to 50% | 0 to 25% | 0 to 25% |  |  |  |  |  |  |  |  | 76 to 100% | 76 to 100% |
| Cn1nc(C(F)(F)F)c(COc2ncc(F)c(N)n2)c1Cl [Compound 211] |  |  |  |  | 26 to 50% | 51 to 75% | 0 to 25% | 0 to 25% | 76 to 100% | 76 to 100% | 76 to 100% | 76 to 100% |  |  |  |  |  |  |
